Measured values: US12077503B2, “Substituted cyclic amides and their use as herbicides” (FMC CORPORATION, priority 2015, dated 2024)

Assays:
Assay type in all cases: in vivo
[1] = tested on: giant foxtail (Setaria faberii); experiment: Test A preemergence
Description: (§1) Seeds of plant species selected from barnyardgrass (Echinochloa crus-galli), Kochia (Kochia scoparia), ragweed (common ragweed, Ambrosia elatior), ryegrass, Italian (Italian ryegrass, Lolium multiflorum), crabgrass, large (Digitaria sanguinalis), giant foxtail (Setaria faberii), green foxtail (Setaria viridis), morningglory (Ipomoea spp.), pigweed (Amaranthus retroflexus), velvetleaf (Abutilon theophrasti), wheat (Triticum aestivum), and corn (Zea mays) were planted into a blend of loam soil and sand and treated preemergence with a directed soil spray using test chemicals formulated in anon-phytotoxic solvent mixture which included a surfactant.
(§2) At the same time, plants selected from these crop and weed species and also blackgrass (Alopecurus myosuroides), and Galium (catchweed bedstraw, Galium aparine) were planted in pots containing the same blend of loam soil and sand and treated with postemergence applications of test chemicals formulated in the same manner. Plants ranged in height from 2 to 10 cm and were in the one- to two-leaf stage for the postemergence treatment. Treated plants and untreated controls were maintained in a greenhouse for approximately 10 d, after which time all treated plants were compared to untreated controls and visually evaluated for injury. Plant response ratings, summarized in Table A, are based on a 0 to 100 scale where 0 is no effect and 100 is complete control. A dash (-) response means no test result.

[2] = tested on: pigweed (Amaranthus retroflexus); experiment: Test A preemergence
Description: as §1, §2

[3] = tested on: Kochia (Kochia scoparia); experiment: Test A preemergence
Description: as §1, §2

[4] = tested on: ragweed (common ragweed, Ambrosia elatior); experiment: Test A preemergence
Description: as §1, §2

[5] = tested on: ryegrass, Italian (Italian ryegrass, Lolium multiflorum); experiment: Test A preemergence
Description: as §1, §2

[6] = tested on: barnyardgrass (Echinochloa crus-galli); experiment: Test A preemergence
Description: as §1, §2

[7] = tested on: blackgrass (Alopecurus myosuroides); experiment: Test A postemergence; settings: postemergence; for Plant response rating, Blackgrass: 0 to 100 scale, 0 no effect, 100 complete control
Description: as §1, §2

[8] = tested on: giant foxtail (Setaria faberii); experiment: Test A postemergence; settings: postemergence; for Plant response rating, Foxtail, Giant: 0 to 100 scale, 0 no effect, 100 complete control
Description: as §1, §2

[9] = tested on: pigweed (Amaranthus retroflexus); experiment: Test A postemergence; settings: postemergence; for Plant response rating, Pigweed: 0 to 100 scale, 0 no effect, 100 complete control
Description: as §1, §2

[10] = tested on: Kochia (Kochia scoparia); experiment: Test A postemergence; settings: postemergence; for Plant response rating, Kochia: 0 to 100 scale, 0 no effect, 100 complete control
Description: as §1, §2

[11] = tested on: ragweed (common ragweed, Ambrosia elatior); experiment: Test A postemergence; settings: postemergence; for Plant response rating, Ragweed: 0 to 100 scale, 0 no effect, 100 complete control
Description: as §1, §2

[12] = tested on: wheat (Triticum aestivum); experiment: Test A postemergence; settings: postemergence; for Plant response rating, Wheat: 0 to 100 scale, 0 no effect, 100 complete control
Description: as §1, §2

[13] = tested on: corn (Zea mays); experiment: Test A postemergence; settings: postemergence; for Plant response rating, Corn: 0 to 100 scale, 0 no effect, 100 complete control
Description: as §1, §2

[14] = tested on: ryegrass, Italian (Italian ryegrass, Lolium multiflorum); experiment: Test A postemergence; settings: postemergence; for Plant response rating, Ryegrass, Italian: 0 to 100 scale, 0 no effect, 100 complete control
Description: as §1, §2

[15] = tested on: barnyardgrass (Echinochloa crus-galli); experiment: Test A postemergence; settings: postemergence; for Plant response rating, Barnyardgrass: 0 to 100 scale, 0 no effect, 100 complete control
Description: as §1, §2

[16] = tested on: Galium (catchweed bedstraw, Galium aparine); experiment: Test A postemergence; settings: postemergence; for Plant response rating, Galium: 0 to 100 scale, 0 no effect, 100 complete control
Description: as §1, §2

[17] = 125 g ai/ha, preemergence, 0 to 100 scale (0 no effect, 100 complete control)
[18] = Preemergence, 500 g ai/ha, visual injury approx. 10 d
[19] = 125 g ai/ha, visual injury rating on 0 to 100 scale (0 no effect, 100 complete control), approx. 10 d
[20] = Preemergence, 1000 g ai/ha, 0 is no effect, 100 is complete control

## COC(=O)c1ccccc1NC(=O)C1C(=O)NCC1c1ccc(F)c(F)c1 (stereo not drawn) [Compound 417]
[1]; [17]
  Plant response rating, Foxtail, Giant: 0
[1]; [18]
  Foxtail, Giant plant response rating (0 to 100 scale, 0 is no effect, 100 is complete control): 0
[2]; [17]
  Plant response rating, Pigweed: 0
[2]; [18]
  Pigweed plant response rating (0 to 100 scale, 0 is no effect, 100 is complete control): 0
[3]; [17]
  Plant response rating, Kochia: 0
[3]; [18]
  Kochia plant response rating (0 to 100 scale, 0 is no effect, 100 is complete control): 0
[4]; [17]
  Plant response rating, Ragweed: 0
[4]; [18]
  Ragweed plant response rating (0 to 100 scale, 0 is no effect, 100 is complete control): 0
[5]; [17]
  Plant response rating, Ryegrass, Italian: 0
[5]; [18]
  Ryegrass, Italian plant response rating (0 to 100 scale, 0 is no effect, 100 is complete control): 0
[6]; [17]
  Plant response rating, Barnyardgrass: 0
[6]; [18]
  Barnyardgrass plant response rating (0 to 100 scale, 0 is no effect, 100 is complete control): 0
[7]; [19]
  Blackgrass plant response rating: 0
[7]; 500 g ai/ha
  Plant response rating, Blackgrass: 0
[8]; [19]
  Foxtail, Giant plant response rating: 0
[8]; 500 g ai/ha
  Plant response rating, Foxtail, Giant: 0
[9]; [19]
  Pigweed plant response rating: 0
[9]; 500 g ai/ha
  Plant response rating, Pigweed: 0
[10]; [19]
  Kochia plant response rating: 0
[10]; 500 g ai/ha
  Plant response rating, Kochia: 0
[11]; [19]
  Ragweed plant response rating: 0
[11]; 500 g ai/ha
  Plant response rating, Ragweed: 0
[12]; [19]
  Wheat plant response rating: 0
[12]; 500 g ai/ha
  Plant response rating, Wheat: 0
[13]; [19]
  Corn plant response rating: 0
[13]; 500 g ai/ha
  Plant response rating, Corn: 0
[14]; [19]
  Ryegrass, Italian plant response rating: 0
[14]; 500 g ai/ha
  Plant response rating, Ryegrass, Italian: 0
[15]; [19]
  Barnyardgrass plant response rating: 0
[15]; 500 g ai/ha
  Plant response rating, Barnyardgrass: 0
[16]; [19]
  Galium plant response rating: 0
[16]; 500 g ai/ha
  Plant response rating, Galium: 0

## O=C(Nc1cccc(F)c1F)C1C(=O)N(CC=CCl)CC1c1cc(F)cc(F)c1 (stereo not drawn) [Compound 512]
[1]; [20]
  Foxtail, Giant plant response rating (0 to 100 scale): 90
[2]; [20]
  Pigweed plant response rating (0 to 100 scale): 0
[3]; [20]
  Kochia plant response rating (0 to 100 scale): 0
[4]; [20]
  Ragweed plant response rating (0 to 100 scale): 0
[5]; [20]
  Ryegrass, Italian plant response rating (0 to 100 scale): 0
[6]; [20]
  Barnyardgrass plant response rating (0 to 100 scale): 80
[7]; 1000 g ai/ha
  Plant response rating, Blackgrass: 0
[8]; 1000 g ai/ha
  Plant response rating, Foxtail, Giant: 90
[9]; 1000 g ai/ha
  Plant response rating, Pigweed: 0
[10]; 1000 g ai/ha
  Plant response rating, Kochia: 0
[11]; 1000 g ai/ha
  Plant response rating, Ragweed: 0
[12]; 1000 g ai/ha
  Plant response rating, Wheat: 0
[13]; 1000 g ai/ha
  Plant response rating, Corn: 0
[14]; 1000 g ai/ha
  Plant response rating, Ryegrass, Italian: 0
[15]; 1000 g ai/ha
  Plant response rating, Barnyardgrass: 80
[16]; 1000 g ai/ha
  Plant response rating, Galium: 0
